# According to patent publication US11051515B2, “3-acyl-benzamides and their use as herbicides” (Bayer Aktiengesellschaft, priority 2017, dated 2021):
# Assays:
# [1] = test system: VIOTR; assay: Pre-emergence action against VIOTR; type: in vivo, Viola tricolor; details: Dosage 320 g/ha, pre-emergence
# Summary of the method: (§1)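 Seeds sown in sandy loam in wood-fiber pots and covered with soil. Greenhouse growth; visual damage scored after 3 weeks versus untreated controls (100% = dead, 0% = like control).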
# [2] = test system: STEME; assay: Post-emergence action against STEME; type: in vivo, Stellaria media; details: post-emergence, dosage 80 g/ha
# Summary of the method: (§2)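 Weeds grown in sandy loam in greenhouse, treated at one-leaf stage (2–3 weeks after sowing) with WP or EC formulations sprayed as aqueous suspension/emulsion at 600 to […] water with 0.2% wetting agent. Visual rating after about 3 weeks versus untreated controls, as % herbicidal action (100% = plants dead, 0% = like control).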
# [3] = test system: ABUTH; assay: Pre-emergence action against ABUTH; type: in vivo, Abutilon theophrasti; details: pre-emergence, dosage 320 g/ha, scored visually after 3 weeks vs untreated controls
# Summary of the method: as §1
# [4] = test system: VERPE; assay: Pre-emergence action against VERPE; type: in vivo, Veronica persica; details: Dosage 320 g/ha, pre-emergence
# Summary of the method: as §1
# [5] = test system: ALOMY; assay: Post-emergence action against ALOMY; type: in vivo, Alopecurus myosuroides; details: Dosage 80 g/ha, post-emergence
# Summary of the method: as §2
# [6] = test system: SETVI; assay: Pre-emergence action against SETVI; type: in vivo, Setaria viridis; details: pre-emergence, dosage 320 g/ha, scored visually after 3 weeks vs untreated controls
# Summary of the method: as §1
# [7] = test system: SETVI; assay: Post-emergence action against SETVI; type: in vivo, Setaria viridis; details: post-emergence, dosage 80 g/ha, visual assessment about 3 weeks after treatment vs untreated controls
# Summary of the method: as §2
# [8] = test system: MATIN; assay: Pre-emergence action against MATIN; type: in vivo, Matricaria inodora; details: Dosage 320 g/ha, pre-emergence
# Summary of the method: as §1
# [9] = test system: VERPE; assay: Post-emergence action against VERPE; type: in vivo, Veronica persica; details: dosage 80 g/ha
# Summary of the method: as §2
# [10] = test system: STEME; assay: Pre-emergence action against STEME; type: in vivo, Stellaria media; details: Dosage 320 g/ha, pre-emergence
# Summary of the method: as §1
# [11] = test system: VIOTR; assay: Post-emergence action against VIOTR; type: in vivo, Viola tricolor; details: post-emergence, dosage 80 g/ha
# Summary of the method: as §2
# [12] = test system: ECHCG; assay: Pre-emergence action against ECHCG; type: in vivo, Echinochloa crus-galli; details: pre-emergence, dosage 320 g/ha, scored visually after 3 weeks vs untreated controls
# Summary of the method: as §1
# [13] = test system: AMARE; assay: Pre-emergence action against AMARE; type: in vivo, Amaranthus retroflexus; details: pre-emergence, dosage 320 g/ha, scored visually after 3 weeks vs untreated controls
# Summary of the method: as §1
# [14] = test system: PHBPU; assay: Post-emergence action against PHBPU; type: in vivo, Pharbitis purpurea; details: post-emergence, dosage 80 g/ha
# Summary of the method: as §2
# [15] = test system: LOLMU; assay: Pre-emergence action against LOLMU; type: in vivo, Lolium multiflorum; details: dosage 320 g/ha, scored visually after 3 weeks vs untreated controls
# Text: Seeds of monocotyledonous and dicotyledonous weed plants and crop plants are laid out in sandy loam soil in wood-fiber pots and covered with soil. The compounds of the invention, formulated in the form of wettable powders (WP) or as emulsion concentrates (EC), are then applied to the surface of the covering soil in the form of an aqueous suspension or emulsion at a water application rate equating to […], with addition of 0.2% wetting agent. After the treatment, the pots are placed in a greenhouse and kept under good growth conditions for the trial plants. The damage to the test plants is scored visually after a test period of 3 weeks by comparison with untreated controls (herbicidal activity in percent (%): 100% activity=the plants have died, 0% activity=like control plants).
# [16] = test system: AMARE; assay: Post-emergence action against AMARE; type: in vivo, Amaranthus retroflexus; details: post-emergence, dosage 80 g/ha, visual assessment about 3 weeks after treatment vs untreated controls
# Summary of the method: as §2
# [17] = test system: ABUTH; assay: Post-emergence action against ABUTH; type: in vivo, Abutilon theophrasti; details: post-emergence, dosage 80 g/ha, visual assessment about 3 weeks after treatment vs untreated controls
# Summary of the method: as §2
# [18] = test system: ECHCG; assay: Post-emergence action against ECHCG; type: in vivo, Echinochloa crus-galli; details: post-emergence, dosage 80 g/ha, visual assessment about 3 weeks after treatment vs untreated controls
# Summary of the method: as §2
# [19] = test system: AVEFA; assay: Pre-emergence action against AVEFA; type: in vivo, Avena fatua; details: dosage 320 g/ha, scored visually after 3 weeks vs untreated controls
# Summary of the method: as §1
# [20] = test system: AVEFA; assay: Post-emergence action against AVEFA; type: in vivo, Avena fatua; details: post-emergence, dosage 80 g/ha, visual assessment about 3 weeks after treatment vs untreated controls
# Summary of the method: as §2
# [21] = test system: ALOMY; assay: Pre-emergence action against ALOMY; type: in vivo, Alopecurus myosuroides; details: dosage 320 g/ha; pre-emergence; scored visually after 3 weeks vs untreated controls; 100% = plants have died, 0% = like control plants
# Summary of the method: as §1
# [22] = test system: MATIN; assay: Post-emergence action against MATIN; type: in vivo, Matricaria inodora; details: post-emergence, dosage 80 g/ha, visual assessment about 3 weeks after treatment vs untreated controls
# Summary of the method: as §2
# [23] = test system: CYPES; assay: Pre-emergence action against CYPES; type: in vivo, Cyperus esculentus; details: pre-emergence, dosage 320 g/ha, scored visually after 3 weeks vs untreated controls
# Summary of the method: as §1
# [24] = test system: PHBPU; assay: Pre-emergence action against PHBPU; type: in vivo, Pharbitis purpurea; details: Dosage 320 g/ha, pre-emergence
# Summary of the method: as §1
# [25] = test system: POLCO; assay: Post-emergence action against POLCO; type: in vivo, Polygonum convolvulus; details: post-emergence, dosage 80 g/ha
# Summary of the method: as §2
# [26] = test system: POLCO; assay: Pre-emergence action against POLCO; type: in vivo, Polygonum convolvulus; details: Dosage 320 g/ha, pre-emergence
# Summary of the method: as §1
# [27] = test system: CYPES; assay: Post-emergence action against CYPES; type: in vivo, Cyperus esculentus; details: post-emergence, dosage 80 g/ha, visual assessment about 3 weeks after treatment vs untreated controls
# Summary of the method: as §2
Structure (SMILES),Pre-emergence action against VIOTR [1] [%],Post-emergence action against STEME [2],Pre-emergence action against ABUTH (herbicidal activity) [3] [%],Pre-emergence action against VERPE [4] [%],"SETVI (Table B8, pre-emergence herbicidal activity) [6] [%]",Post-emergence action against SETVI (herbicidal action in percent) [7] [%],Pre-emergence action against MATIN [8] [%],Pre-emergence action against STEME [10] [%],Post-emergence action against VIOTR [11],Pre-emergence action against ECHCG (herbicidal activity) [12] [%],Pre-emergence action against AMARE (herbicidal activity) [13] [%],Post-emergence action against PHBPU [14],Pre-emergence action against LOLMU (herbicidal activity) [15] [%],Post-emergence action against ABUTH (herbicidal action in percent) [17] [%],Post-emergence action against ECHCG (herbicidal action in percent) [18] [%],Pre-emergence action against AVEFA (herbicidal activity) [19] [%],Pre-emergence action against ALOMY (herbicidal activity in percent) [21] [%],Post-emergence action against MATIN (herbicidal action in percent) [22] [%],Pre-emergence action against CYPES (herbicidal activity) [23] [%],also measured
CCn1nnnc1NC(=O)c1ccc(SC)c(C(=O)C2CC2)c1Cl [2-123],100,100,100,100,100,100,100,100,100,100,100,100,90,100,100,80,100,100,90,Post-emergence action against ALOMY [5]: 90%; Post-emergence action against VERPE [9]: 100; Post-emergence action against AMARE (herbicidal action in percent) [16]: 100%; Post-emergence action against AVEFA (herbicidal action in percent) [20]: 100%
CCn1nnnc1NC(=O)c1ccc(C(F)(F)F)c(C(C)=O)c1Br [2-195],100,90,100,100,100,90,100,100,100,100,100,90,80,80,90,90,90,90,100,Pre-emergence action against PHBPU [24]: 80%; Post-emergence action against POLCO [25]: 90; Pre-emergence action against POLCO [26]: 90%; Post-emergence action against CYPES (herbicidal action in percent) [27]: 90%
